For one assay, the target named is T1, human CYP17 (Homo sapiens, UniProt P05093).
T1 construct: made in house; host or cells: E. coli pJL17/OR (membrane fraction)
T1 sequence (P05093 1-508): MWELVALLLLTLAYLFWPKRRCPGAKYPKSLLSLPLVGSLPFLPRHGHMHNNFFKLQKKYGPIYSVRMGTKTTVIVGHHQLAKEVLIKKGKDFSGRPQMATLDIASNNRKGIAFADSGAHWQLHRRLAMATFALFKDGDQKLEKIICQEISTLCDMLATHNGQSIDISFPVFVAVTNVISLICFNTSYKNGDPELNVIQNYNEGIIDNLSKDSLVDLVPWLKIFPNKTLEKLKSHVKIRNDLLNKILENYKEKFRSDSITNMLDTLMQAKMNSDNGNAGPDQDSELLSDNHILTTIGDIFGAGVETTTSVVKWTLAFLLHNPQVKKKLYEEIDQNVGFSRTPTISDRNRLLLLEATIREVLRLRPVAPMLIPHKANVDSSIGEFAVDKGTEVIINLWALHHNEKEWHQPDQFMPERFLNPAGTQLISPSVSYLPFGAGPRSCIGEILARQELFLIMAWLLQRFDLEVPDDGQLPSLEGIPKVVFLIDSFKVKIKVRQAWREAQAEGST
In words: Percent inhibition of CYP17 (membrane fraction of E. coli pJL17/OR). It is filed as biochemical. Particulars: E. coli which expresses human CYP17, 5 mg/ml protein, progesterone substrate 2.5 μM, inhibitor 2.5 μM; for inhibition at 2.5 µM: read-out: % Inhibition human CYP17. As to the method: The recombinantly altered E. coli strain pJL17/OR, in which human CYP17 and rat NADPH-P450-reductase were coexpressed, was grown and stored according to the method of Ehmer et al. (Ehmer, P. B. et al., J. Steroid Biochem. Mol. Biol. 75: 57-63 (2000)). For isolating the membrane fraction, 5 ml of the bacterial cell suspension with an OD578 of 50 was washed with phosphate buffer (0.05 M; pH 7.4; 1 mM MgCl2; 0.1 mM EDTA and 0.1 mM DTT). The bacteria were removed by centrifugation and resuspended in 10 ml of ice cold TES buffer (0.1 M tris-acetate; pH 7.8; 0.5 mM EDTA; 0.5 M sucrose). Four milligrams of lysozyme in 10 ml of ice cold water was added to obtain a final concentration of 0.2 mg/ml. This was followed by incubation for 30 minutes under continued shaking on ice. The spheroblasts were obtained by a renewed centrifugation step at 12,000 g for 10 min and again resuspended in 3 ml of ice cold phosphate buffer (composition see above, additionally 0.5 mM PMSF).
After freezing and thawing, the cells were lysed on ice with an ultrasonic disintegrator. The whole cells and the cell debris were centrifuged off at 3000 g for 7 min. The supernatant was again centrifuged at 50,000 g for 20 min at 4° C. A membrane pellet sedimented and was resuspended in 2 ml of phosphate buffer (composition see above) with […] by means of an Ultra-Turrax mixer. […] Aliquots with an approximate protein concentration of 5 mg/ml were stored at −70° C. until use.
Control incubations were performed in parallel with 5 μl DMSO without urea. The reaction was started by adding 50 μl of a membrane suspension diluted 1 to 5 in phosphate buffer (0.8 to 1 mg of protein per ml). After thoroughly mixing the components, the mixture was incubated at 37° C. for 30 min.
The steroids were extracted with 1 ml of EtOAc. […] After the centrifugation, 800 μl of the organic phase was removed, placed into a new vessel and evaporated to dryness. The samples were dissolved in 50 μl of a water-methanol mixture (1:1) and analyzed by HPLC. The substrate conversion was calculated from the ratio of the areas of the product peaks (17α-hydroxyprogesterone and 16α-hydroxyprogesterone) to that of the substrate peak. The activity of the inhibitors was calculated from the reduced substrate conversion after the addition of inhibitors in accordance with the following formula: […]

The target in a further assay is T2, human CYP11B2 (Homo sapiens, UniProt P19099).
T2 sequence (P19099 25-503): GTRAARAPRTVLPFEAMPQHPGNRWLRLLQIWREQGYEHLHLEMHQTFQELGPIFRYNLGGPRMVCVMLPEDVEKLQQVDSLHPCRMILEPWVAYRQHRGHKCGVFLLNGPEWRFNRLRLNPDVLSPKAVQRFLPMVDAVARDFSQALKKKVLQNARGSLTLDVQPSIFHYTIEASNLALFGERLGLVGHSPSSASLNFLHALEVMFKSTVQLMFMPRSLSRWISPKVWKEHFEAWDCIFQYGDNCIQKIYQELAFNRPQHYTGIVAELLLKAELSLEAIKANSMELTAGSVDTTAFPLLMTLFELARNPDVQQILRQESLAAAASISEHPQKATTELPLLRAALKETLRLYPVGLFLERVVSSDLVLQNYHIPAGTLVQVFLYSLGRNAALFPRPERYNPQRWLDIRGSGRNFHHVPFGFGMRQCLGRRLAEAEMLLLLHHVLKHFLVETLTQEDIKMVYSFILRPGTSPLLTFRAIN
In words: V79 MZh 11B2 cells inhibition test. The settings on record: hamster fibroblasts which express human CYP11B2; deoxycorticosterone substrate 100 nM; read-out: IC50 V79 11B2 hCYP11B2. It is filed as cell-based. On the set-up: expressed in transfected cells; host or cells: V79 MZh11B2 (Chinese hamster lung fibroblasts). On the procedure: Both cell lines were cultured in DMEM^+ containing […] and the antibiotics penicillin and streptomycin (10%) for protection from bacterial contamination. The cells were passaged every 2-3 days after treatment with trypsin/EDTA because the doubling rate was 1-2 days depending on the number of cells. […] When there was further need, freshly thawed cells were employed.
Thereafter, the plate was stored at 37° C. and […] in a CO2 incubator. The V79 MZh 11B1 cells were incubated for 120 min, and the V79 MZh 11B2 cells were incubated for 40 min. Controls without inhibitor were treated in the same way. The enzyme reactions were quenched by extracting the supernatant with 500 μl of EtOAc. The samples were centrifuged (10,000 g, 2 min), the solvent was removed and evaporated.
For V79 MZh11B2, the conversion rate was obtained in accordance with equation 3: […]
It was calculated by determining the percent inhibition for at least 3 different inhibitor concentrations, which must all be in the linear range of the sigmoidal IC50 curve (log C/% inhibition).
The calculation was effected by linear regression. The values determined were used only if they formed a straight line with a reliability of […].
The plate was developed twice with the mobile solvent chloroform:methanol:water (300:20:1). Unlabeled 11-deoxycorticosterone and corticosterone were applied as a reference for the CYP11B1 reaction. For the CYP11B2 reaction, 11-deoxycorticosterone, corticosterone, 18-hydroxycorticosterone and aldosterone were used as references. The detection of the unlabeled references was effected at 260 nm. Subsequently, imaging plates (BAS MS2340, for ^14C samples, Raytest, Straubenhardt, Germany) were exposed to the HPTLC plates for 48 h. The imaging plates were scanned with the phosphoimager system Fuji FLA 3000 (Raytest, Straubenhardt, Germany), and the steroids were quantified.

As a reminder, the inhibition is the share of the control response that was lost under treatment. For orientation: IC50 means the concentration at which inhibition is half-maximal.

Structures can show the parent of a compound that is named as a salt.

On to `COc1ccc2c(c1)CCC/C2=C\c1cccnc1` [Compound 13a, 3-[(E)-(6-Methoxy-3,4-dihydronaphthalene-1(2H)-ylidene)methyl]pyridine Hydrochloride], for which the inhibition at 2.5 µM on human CYP17 was found to be 20%. The IC50 at human CYP11B2 was found to be 56.6 nM.

“5-[(E)-(6-Chloro-3,4-dihydronaphth-1(2H)-ylidene)methyl]-1H-imidazolium chloride [Compound 46a]”: the “% Inhibition human CYP17” value on human CYP17 is reported as 24%. Further, the IC50 on human CYP11B2 is 47.3 nM.

`C(=C1/CCc2ccccc21)/c1cnc[nH]1` [Compound 42a, 5-[(E)-2,3-Dihydro-1H-indane-1-ylidenemethyl]-1H-imidazole]: at human CYP17, the inhibition at 2.5 µM was 11%. In addition, the 50% inhibitory concentration (IC50) on human CYP11B2 came out at 41 nM.

In the case of `Fc1ccc2c(c1)CC/C2=C\c1cncnc1` [Compound 28a, 5-[(E)-(5-Fluoro-2,3-dihydro-1H-indane-1-ylidene)methyl]pyrimidine Hydrochloride], the inhibition at 2.5 µM on human CYP17 is 6%. Also, on human CYP11B2, the IC50 was 27.4 nM.

On to `Fc1ccc2c(c1)CC/C2=C\c1cccc2cnccc12` [Compound 30a, 5-[(E)-(5-Fluoro-2,3-dihydro-1H-indane-1-ylidene)methyl]isoquinoline Hydrochloride], for which, on human CYP17, the inhibition at 2.5 µM stood at 57%. In addition, the IC50 on human CYP11B2 amounted to 58.1 nM.

`Fc1ccc2c(c1)CC/C2=C/c1ccncc1` [Compound 6b, 4-[(Z)-(5-Fluoro-2,3-dihydro-1H-indane-1-ylidene)methyl]pyridine Hydrochloride]: the inhibition at 2.5 µM on human CYP17 is 29%. The IC50 at human CYP11B2 was 34 nM.

On to `Cc1cccc2c1CC/C2=C\c1cccnc1` [Compound 23a, 3-[(E)-(4-Methyl-2,3-dihydro-1H-indane-1-ylidene)methyl]pyridine Hydrochloride], for which the inhibition at 2.5 µM at human CYP17 is 40%. Also, the IC50 at human CYP11B2 came to 108 nM.

`COc1cccc2c1/C(=C/c1cccnc1)CC2` [Compound 26a, 3-[(E)-(7-Methoxy-2,3-dihydro-1H-indane-1-ylidene)methyl]pyridine Hydrochloride]: the inhibition at 2.5 µM at human CYP17 was 5%. For the same molecule, the IC50 on human CYP11B2 stood at 26.7 nM.

On to `COc1ccc2c(c1)CC/C2=C/c1cccnc1` [Compound 11b, 3-[(Z)-(5-Methoxy-2,3-dihydro-1H-indane-1-ylidene)methyl]pyridine Hydrochloride], for which the inhibition at 2.5 µM on human CYP17 came to 49%. Also, the IC50 on human CYP11B2 was 26.4 nM.

As for `Fc1cccc2c1CC/C2=C\c1cccnc1` [Compound 24a, 3-[(E)-(4-Fluoro-2,3-dihydro-1H-indane-1-ylidene)methyl]pyridine Hydrochloride], the inhibition at 2.5 µM on human CYP17 was 42%. Also, the IC50 on human CYP11B2 came out at 20.9 nM.

On to `Clc1cccc2c1CC/C2=C/c1cccnc1` [Compound 25b, 3-[(Z)-(4-Chloro-2,3-dihydro-1H-indane-1-ylidene)methyl]pyridine Hydrochloride], for which, on human CYP17, the inhibition at 2.5 µM came out at 32%. For the same molecule, the IC50 on human CYP11B2 came to 30.6 nM.

On to `C(=C1\CCc2ccccc21)/c1cnc[nH]1` [Compound 42b, 5-[(Z)-2,3-Dihydro-1H-ind-1-ylidenemethyl]-1H-imidazolium oxalate], for which the inhibition at 2.5 µM on human CYP17 was 1%. Also, the IC50 on human CYP11B2 came out at 11 nM.

For the molecule `COc1ccc2c(c1)CCC/C2=C/c1cccnc1.Cl` [Compound 13b, 3-[(Z)-(6-Methoxy-3,4-dihydronaphthalene-1(2H)-ylidene)methyl]pyridine Hydrochloride], the inhibition at 2.5 µM at human CYP17 worked out at 17%. Moreover, the half-inhibitory concentration (IC50) at human CYP11B2 was 878 nM.

In the case of `Fc1ccc2c(c1)CC/C2=C\c1ccncc1` [Compound 6a, 4-[(E)-(5-Fluoro-2,3-dihydro-1H-indane-1-ylidene)methyl]pyridine Hydrochloride], the inhibition at 2.5 µM at human CYP17 was found to be 15%. At human CYP11B2, the IC50 came out at 1100 nM.

As to “5-[(Z)-(5-Bromo-2,3-dihydro-1H-indene-1-ylidene)methyl]-1H-imidazolium oxalate [Compound 49b]”, the “% Inhibition human CYP17” value on human CYP17 is recorded as 15%. Further, on human CYP11B2, the IC50 worked out at 10.3 nM.

Take `Brc1ccc2c(c1)CC/C2=C\c1ccncc1` [Compound 10a, 4-[(E)-(5-Bromo-2,3-dihydro-1H-indane-1-ylidene)methyl]pyridine Hydrochloride]: the inhibition at 2.5 µM at human CYP17 turned out to be 24%. For the same molecule, the IC50 at human CYP11B2 was 2640 nM.

Regarding `COc1ccc2c(c1)CC/C2=C\c1cccnc1` [Compound 11a, 3-[(E)-(5-Methoxy-2,3-dihydro-1H-indane-1-ylidene)methyl]pyridine Hydrochloride], on human CYP17, the inhibition at 2.5 µM came to 36%. The IC50 on human CYP11B2 turned out to be 34.2 nM.

Consider `CCOc1ccc2c(c1)CC/C2=C\c1cccnc1` [Compound 19a, 3-[(E)-(5-Ethoxy-2,3-dihydro-1H-indane-1-ylidene)methyl]pyridine Hydrochloride], for which the inhibition at 2.5 µM on human CYP17 is 13%. In addition, the IC50 on human CYP11B2 was 79.4 nM.

Turning to `C(=C1/CCCc2ccccc21)/c1cnc[nH]1` [Compound 41a, 5-[(E)-3,4-Dihydronaphth-1(2H)-ylidenemethyl]-1H-imidazole], the inhibition at 2.5 µM at human CYP17 came to 13%.

With “5-[(Z)-3,4-Dihydronaphth-1(2H)-ylidenemethyl]-1H-imidazolium oxalate [Compound 41b]”, on human CYP17, the “% Inhibition human CYP17” value was found to be 13%.

Regarding `Cl.Clc1ccc2c(c1)CC/C2=C\c1cnc[nH]1` [Compound 48a, 5-[(E)-(5-Chloro-2,3-dihydro-1H-indene-1-ylidene)methyl]-1H-imidazolium chloride], the inhibition at 2.5 µM on human CYP17 amounted to 37%.

The record behind these values is patent US20090105278A1, “Selective inhibitors of human corticosteroid syntheses” (Universitat Des Saarlandes, priority 2004, published 2009).
